Data reported in patent publication US12091425B2 (AMGEN INC., priority 2016, dated 2024).

Key:
[1] = target: T1, Mcl-1/Bim interaction, recombinant human Mcl-1 (171-327) (Homo sapiens, UniProt Q07820); experiment: Cell free Mcl-1: Bim Affinity Assay (Mcl-1 HTRF); assay type: binding
T1 construct: made in house
Method in brief: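 Biotin-Bim(51-76) peptide, TR-FRET readout, overnight incubation; IC50 from duplicate competition curves, 4-parameter fit.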

[2] = system: OPM-2 human multiple myeloma cell line; experiment: Cell Viability Assay (OPM-2 10 FBS); assay type: cell-based; details: OPM-2 cells, 16 h, CellTiter-Glo
Method in brief: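 ATP-based luminescence (CellTiter-Glo) measured after a 16 h compound treatment of OPM-2 cells seeded at 3000 cells/well in 10% FBS medium. IC50 values derived by 4-parameter logistic fitting of serial dilutions.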

[3] = TR-FRET, 0.1 nM Mcl-1 (171-327), 0.05 nM biotin-Bim (51-76)
[4] = cell free Mcl-1:Bim TR-FRET, recombinant human Mcl-1 (171-327)

T1 sequence (Q07820 171-327): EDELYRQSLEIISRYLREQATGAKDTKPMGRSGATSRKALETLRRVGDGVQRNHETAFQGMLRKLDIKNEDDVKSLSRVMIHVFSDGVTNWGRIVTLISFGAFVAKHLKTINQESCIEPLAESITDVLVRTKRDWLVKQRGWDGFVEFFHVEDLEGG

COCC[C@H]1[C@@H](C)C/C=C/[C@H](OC)[C@@H]2CC[C@H]2CN2C[C@@]3(CCCc4cc(Cl)ccc43)COc3ccc(cc32)C(=O)NS1(=O)=O (single isomer, unassigned) [Example 396]
IC50 [1, 3]: 0.384 nM
IC50 [2]: 186 nM

COCCO[C@H]1/C=C/C[C@H](C)[C@@H](CCOC)S(=O)(=O)NC(=O)c2ccc3c(c2)N(C[C@@H]2CC[C@H]21)C[C@@]1(CCCc2cc(Cl)ccc21)CO3 (single isomer, unassigned) [Example 397]
IC50 [1, 3]: 0.228 nM
IC50 [2]: 143 nM

COCC[C@@H]1[C@@H](C)C/C=C/[C@H](OCCN2CCOCC2)[C@@H]2CC[C@H]2CN2C[C@@]3(CCCc4cc(Cl)ccc43)COc3ccc(cc32)C(=O)NS1(=O)=O (single isomer, unassigned) [Example 398]
IC50 [1, 3]: 0.233 nM
IC50 [2]: 88.3 nM

COCCOCC[C@@H]1[C@@H](C)C/C=C/[C@H](O)[C@@H]2CC[C@H]2CN2C[C@@]3(CCCc4cc(Cl)ccc43)COc3ccc(cc32)C(=O)NS1(=O)=O (single isomer, unassigned) [Example 399]
IC50 [1, 3]: 0.239 nM
IC50 [2]: 165 nM

COCCOCC[C@@H]1[C@@H](C)C/C=C/[C@H](O)[C@@H]2CC[C@H]2CN2C[C@@]3(CCCc4cc(Cl)ccc43)COc3ccc(cc32)C(=O)NS1(=O)=O (single isomer, unassigned) [Example 401]
IC50 [1, 3]: 0.531 nM
IC50 [2]: 452 nM

COCCOCC[C@@H]1[C@@H](C)C/C=C/[C@H](O)[C@@H]2CC[C@H]2CN2C[C@@]3(CCCc4cc(Cl)ccc43)COc3ccc(cc32)C(=O)NS1(=O)=O (single isomer, unassigned) [Example 402]
IC50 [1, 3]: 18.6 nM
IC50 [2]: 13600 nM

C[C@@H]1CC/C=C/[C@H](O[C@@H]2CCOC2=O)[C@@H]2CC[C@H]2CN2C[C@@]3(CCCc4cc(Cl)ccc43)COc3ccc(cc32)C(=O)NS1(=O)=O (single isomer, unassigned) [Example 414]
IC50 [1, 3]: 0.188 nM
IC50 ([2]; Homo sapiens, OPM-2, 16 h): 160 nM

CCC(OC1C=CCCC(C)S(=O)(=O)NC(=O)c2ccc3c(c2)N(CC2CCC21)CC1(CCCc2cc(Cl)ccc21)CO3)C(=O)N(C)C (single isomer, unassigned) [Example 419]
IC50 [1, 3]: 0.333 nM
IC50 ([2]; Homo sapiens, OPM-2, 16 h): 310 nM

CC[C@@H](O[C@H]1/C=C/CC[C@@H](C)S(=O)(=O)NC(=O)c2ccc3c(c2)N(C[C@@H]2CC[C@H]21)C[C@@]1(CCCc2cc(Cl)ccc21)CO3)C(=O)N(C)C (single isomer, unassigned) [Example 421]
IC50 [1, 3]: 0.686 nM
IC50 [2]: 674 nM

CCC1CCC=CC(OC2CCOC2=O)C2CCC2CN2CC3(CCCc4cc(Cl)ccc43)COc3ccc(cc32)C(=O)NS1(=O)=O (single isomer, unassigned) [Example 424]
IC50 [1, 3]: 0.501 nM
IC50 ([2]; Homo sapiens, OPM-2, 16 h): 248 nM

CC[C@@H]1CC/C=C/[C@H](O[C@H]2CCOC2=O)[C@@H]2CC[C@H]2CN2C[C@@]3(CCCc4cc(Cl)ccc43)COc3ccc(cc32)C(=O)NS1(=O)=O (single isomer, unassigned) [Example 425]
IC50 [1, 3]: 0.4 nM
IC50 [2]: 304 nM

C[C@@H]1[C@@H](C)C/C=C/[C@H](O[C@H]2CCOC2=O)[C@@H]2CC[C@H]2CN2C[C@@]3(CCCc4cc(Cl)ccc43)COc3ccc(cc32)C(=O)NS1(=O)=O (single isomer, unassigned) [Example 427]
IC50 [1, 3]: 0.414 nM
IC50 [2]: 204 nM

C[C@@H]1[C@@H](C)C/C=C/[C@H](O[C@@H]2CCOC2=O)[C@@H]2CC[C@H]2CN2C[C@@]3(CCCc4cc(Cl)ccc43)COc3ccc(cc32)C(=O)NS1(=O)=O (single isomer, unassigned) [Example 428]
IC50 [1, 3]: 0.333 nM
IC50 ([2]; Homo sapiens, OPM-2, 16 h): 176 nM

CC(C)C[C@H](O[C@H]1/C=C/C[C@H](C)[C@@H](C)S(=O)(=O)NC(=O)c2ccc3c(c2)N(C[C@@H]2CC[C@H]21)C[C@@]1(CCCc2cc(Cl)ccc21)CO3)C(=O)N(C)C (single isomer, unassigned) [Example 429]
IC50 [1, 3]: 4.15 nM
IC50 [2]: 1320 nM

CC[C@H](O[C@H]1/C=C/C[C@H](C)[C@@H](C)S(=O)(=O)NC(=O)c2ccc3c(c2)N(C[C@@H]2CC[C@H]21)C[C@@]1(CCCc2cc(Cl)ccc21)CO3)C(=O)N(C)C (single isomer, unassigned) [Example 430]
IC50 [1, 3]: 0.743 nM
IC50 [2]: 216 nM

CC[C@@H](O[C@H]1/C=C/C[C@H](C)[C@@H](C)S(=O)(=O)NC(=O)c2ccc3c(c2)N(C[C@@H]2CC[C@H]21)C[C@@]1(CCCc2cc(Cl)ccc21)CO3)C(=O)N(C)C (single isomer, unassigned) [Example 431]
IC50 [1, 3]: 0.512 nM
IC50 [2]: 140 nM

CO[C@H]1/C=C/CC[C@@H](CO)S(=O)(=O)NC(=O)c2ccc3c(c2)N(C[C@@H]2CC[C@H]21)C[C@@]1(CCCc2cc(Cl)ccc21)CO3 (single isomer, unassigned) [Example 446]
IC50 [1, 3]: 0.493 nM
IC50 [2]: 419 nM

CO[C@H]1/C=C/CC[C@@H](C(=O)N(C)C)S(=O)(=O)NC(=O)c2ccc3c(c2)N(C[C@@H]2CC[C@H]21)C[C@@]1(CCCc2cc(Cl)ccc21)CO3 (single isomer, unassigned) [Example 452]
IC50 [1, 3]: 0.277 nM
IC50 [2]: 775 nM

COC1C=CCCC(C(=O)N(C)C)S(=O)(=O)NC(=O)c2ccc3c(c2)N(CC2CCC21)CC1(CCCc2cc(Cl)ccc21)CO3 (single isomer, unassigned) [Example 453]
IC50 [1, 3]: 6.73 nM
IC50 [2]: 21000 nM

COC[C@@H]1[C@@H](C)C/C=C/[C@H](O)[C@@H]2CC[C@H]2CN2C[C@@]3(CCCc4cc(Cl)ccc43)COc3ccc(cc32)C(=O)NS1(=O)=O (single isomer, unassigned) [Example 455]
IC50 [1, 3]: 0.166 nM
IC50 ([2]; Homo sapiens, OPM-2, 16 h): 71.6 nM

COC[C@H]1[C@@H](C)C/C=C\[C@H](O)[C@@H]2CC[C@H]2CN2C[C@@]3(CCCc4cc(Cl)ccc43)COc3ccc(cc32)C(=O)NS1(=O)=O (single isomer, unassigned) [Example 457]
IC50 [1, 3]: 0.263 nM
IC50 ([2]; Homo sapiens, OPM-2, 16 h): 296 nM

CC[C@H]1[C@H](OC)C/C=C/[C@H](O)[C@@H]2CC[C@H]2CN2C[C@@]3(CCCc4cc(Cl)ccc43)COc3ccc(cc32)C(=O)NS1(=O)=O (single isomer, unassigned) [Example 459]
IC50 [1, 3]: 3.37 nM
IC50 [2]: 3300 nM

COCC1C(C)CC=CC(OC)C2CCC2CN2CC3(CCCc4cc(Cl)ccc43)COc3ccc(cc32)C(=O)NS1(=O)=O (single isomer, unassigned) [Example 460]
IC50 [1, 3]: 0.334 nM
IC50 ([2]; Homo sapiens, OPM-2, 16 h): 132 nM

COC[C@H]1[C@@H](C)C/C=C/[C@H](OC)[C@@H]2CC[C@H]2CN2C[C@@]3(CCCc4cc(Cl)ccc43)COc3ccc(cc32)C(=O)NS1(=O)=O (single isomer, unassigned) [Example 461]
IC50 [1, 3]: 1.79 nM
IC50 [2]: 775 nM

COCCOC1C=CCC(C)C(COC)S(=O)(=O)NC(=O)c2ccc3c(c2)N(CC2CCC21)CC1(CCCc2cc(Cl)ccc21)CO3 (single isomer, unassigned) [Example 463]
IC50 [1, 3]: 0.416 nM
IC50 ([2]; Homo sapiens, OPM-2, 16 h): 122 nM

COCCO[C@H]1/C=C/C[C@H](C)[C@H](COC)S(=O)(=O)NC(=O)c2ccc3c(c2)N(C[C@@H]2CC[C@H]21)C[C@@]1(CCCc2cc(Cl)ccc21)CO3 (single isomer, unassigned) [Example 464]
IC50 [1, 3]: 1.49 nM
IC50 [2]: 650 nM

CCOC[C@@H]1[C@@H](C)C/C=C/[C@H](O)[C@@H]2CC[C@H]2CN2C[C@@]3(CCCc4cc(Cl)ccc43)COc3ccc(cc32)C(=O)NS1(=O)=O (single isomer, unassigned) [Example 466]
IC50 [1, 3]: 0.331 nM
IC50 [2]: 128 nM

CCOC[C@H]1[C@@H](C)C/C=C/[C@H](O)[C@@H]2CC[C@H]2CN2C[C@@]3(CCCc4cc(Cl)ccc43)COc3ccc(cc32)C(=O)NS1(=O)=O (single isomer, unassigned) [Example 467]
IC50 [1, 3]: 1.45 nM
IC50 [2]: 1510 nM

C=C1[C@@H](C)C/C=C/[C@H](O)[C@@H]2CC[C@H]2CN2C[C@@]3(CCCc4cc(Cl)ccc43)COc3ccc(cc32)C(=O)NS1(=O)=O (single isomer, unassigned) [Example 468]
IC50 [1, 3]: 0.299 nM
IC50 ([2]; Homo sapiens, OPM-2, 16 h): 262 nM

CCOC[C@@H]1[C@@H](C)C/C=C/[C@H](OC)[C@@H]2CC[C@H]2CN2C[C@@]3(CCCc4cc(Cl)ccc43)COc3ccc(cc32)C(=O)NS1(=O)=O (single isomer, unassigned) [Example 469]
IC50 [1, 3]: 0.973 nM
IC50 [2]: 334 nM

CC[C@@H]1[C@@H](OCCOC)C/C=C/[C@H](O)[C@@H]2CC[C@H]2CN2C[C@@]3(CCCc4cc(Cl)ccc43)COc3ccc(cc32)C(=O)NS1(=O)=O (single isomer, unassigned) [Example 470]
IC50 [1, 4]: 0.726 nM
IC50 [2]: 355 nM

COCC1CC(C)C=CC(O)C2CCC2CN2CC3(CCCc4cc(Cl)ccc43)COc3ccc(cc32)C(=O)NS1(=O)=O (single isomer, unassigned) [Example 471]
IC50 [1, 4]: 0.188 nM
IC50 ([2]; Homo sapiens, OPM-2, 16 h): 141 nM

COC[C@@H]1C[C@H](C)/C=C/[C@H](O)[C@@H]2CC[C@H]2CN2C[C@@]3(CCCc4cc(Cl)ccc43)COc3ccc(cc32)C(=O)NS1(=O)=O (single isomer, unassigned) [Example 472]
IC50 [1, 4]: 0.27 nM
IC50 [2]: 206 nM

COC[C@@H]1C[C@@H](C)/C=C/[C@H](OC)[C@@H]2CC[C@H]2CN2C[C@@]3(CCCc4cc(Cl)ccc43)COc3ccc(cc32)C(=O)NS1(=O)=O (single isomer, unassigned) [Example 473]
IC50 [1, 4]: 0.369 nM
IC50 [2]: 160 nM

COCC[C@@H]1C[C@@H](C)/C=C/[C@H](O)[C@@H]2CC[C@H]2CN2C[C@@]3(CCCc4cc(Cl)ccc43)COc3ccc(cc32)C(=O)NS1(=O)=O (single isomer, unassigned) [Example 477]
IC50 [1, 4]: 0.311 nM
IC50 [2]: 286 nM

COCC[C@@H]1C[C@H](C)/C=C/[C@H](O)[C@@H]2CC[C@H]2CN2C[C@@]3(CCCc4cc(Cl)ccc43)COc3ccc(cc32)C(=O)NS1(=O)=O (single isomer, unassigned) [Example 478]
IC50 [1, 4]: 0.197 nM
IC50 [2]: 468 nM
